Blank lines part the entries; values can stand above or below the compound they belong to.
Key:
[1] = molecular target: Cyclin-dependent kinase 2/cyclin A (Homo sapiens, UniProt P24941); assay: Inhibition of recombinant CDK2/Cyclin A expressed in insect Sf9 cells assessed as inhibition of [33P]-ATP incorporation into biotinylated histone H1 after 1 hr by liquid scintillation counting
[2] = molecular target: T1, Serine/threonine-protein kinase Chk1 (Homo sapiens, UniProt O14757)
T1 sequence (O14757 whole entry): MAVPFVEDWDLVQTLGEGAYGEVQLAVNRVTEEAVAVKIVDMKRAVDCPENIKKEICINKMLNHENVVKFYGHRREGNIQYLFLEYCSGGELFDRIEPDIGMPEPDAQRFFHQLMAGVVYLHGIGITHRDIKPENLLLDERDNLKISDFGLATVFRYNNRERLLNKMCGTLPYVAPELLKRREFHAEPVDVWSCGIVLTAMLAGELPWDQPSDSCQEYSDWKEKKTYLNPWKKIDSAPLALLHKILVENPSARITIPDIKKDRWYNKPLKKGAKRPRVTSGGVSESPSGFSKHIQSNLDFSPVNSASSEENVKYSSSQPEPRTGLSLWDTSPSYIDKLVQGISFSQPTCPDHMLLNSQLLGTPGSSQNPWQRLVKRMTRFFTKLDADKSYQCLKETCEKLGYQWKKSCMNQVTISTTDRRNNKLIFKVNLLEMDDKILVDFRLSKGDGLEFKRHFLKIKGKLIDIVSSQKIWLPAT
Description: Inhibition of histidine-tagged recombinant CHK1 expressed in baculovirus expression system after 2 hrs by scintillation proximity assay

SMILES: COC/C=C/c1c(C2CCCNC2)nc2c(-c3cnn(C)c3)cnn2c1N (stereo not drawn)
IC50 [1]: 2200 nM

SMILES: Cn1cc(-c2cnn3c(N)c(-c4ccccc4)c(C4CCCNC4)nc23)cn1 (stereo not drawn)
IC50 [1]: 8300 nM

SMILES: Cn1cc(-c2cnn3c(N)c(-c4cccs4)c(C4CCCNC4)nc23)cn1 (stereo not drawn)
IC50 [1]: 990 nM

SMILES: Cn1cc(-c2cnn3c(N)c(-c4ccsc4)c(C4CCCNC4)nc23)cn1 (stereo not drawn)
IC50 [1]: 2200 nM

SMILES: Cn1cc(-c2cnn3c(N)c(-c4ccoc4)c(C4CCCNC4)nc23)cn1 (stereo not drawn)
IC50 [1]: 2300 nM

SMILES: Cn1cc(-c2cnn3c(N)c(-c4cccnc4)c(C4CCCNC4)nc23)cn1 (stereo not drawn)
IC50 [1]: 1500 nM

SMILES: Cn1cc(-c2cnn3c(N)c(-c4ccncc4)c(C4CCCNC4)nc23)cn1 (stereo not drawn)
IC50 [1]: 11000 nM

SMILES: Cn1cc(-c2c(C3CCCNC3)nc3c(-c4cnn(C)c4)cnn3c2N)cn1 (stereo not drawn)
IC50 [1]: 22000 nM | IC50 [2]: 100 nM

SMILES: Nc1c(Br)c(C2CCCNC2)nc2c(-c3cccnc3)cnn12 (stereo not drawn)
IC50 [1]: 170 nM | IC50 [2]: 17 nM

SMILES: Nc1c(Br)c(C2CCCNC2)nc2c(-c3ccoc3)cnn12 (stereo not drawn)
IC50 [1]: 100 nM

SMILES: Cc1ncc(-c2cnn3c(N)c(Br)c(C4CCCNC4)nc23)s1 (stereo not drawn)
IC50 [1]: 200 nM | IC50 [2]: 8 nM

SMILES: Cn1cc(-c2cnn3c(N)c(Br)c(-c4cccnc4)nc23)cn1
IC50 [1]: 1300 nM | IC50 [2]: 4000 nM

Next, values leading:

IC50 [1]: 310 nM | IC50 [2]: 3 nM
SMILES: Cn1cc(-c2cnn3c(N)c(Cl)c(C4CCCNC4)nc23)cn1 (stereo not drawn)

IC50 [1]: 160 nM
SMILES: Cn1cc(-c2cnn3c(N)c(Br)c(C4CCCNC4)nc23)cn1 (stereo not drawn)

IC50 [1]: 330 nM
SMILES: Cn1cc(-c2cnn3c(N)c(I)c(C4CCCNC4)nc23)cn1 (stereo not drawn)

IC50 [1]: 330 nM
SMILES: CCc1c(C2CCCNC2)nc2c(-c3cnn(C)c3)cnn2c1N (stereo not drawn)

IC50 [1]: 520 nM
SMILES: CC#Cc1c(C2CCCNC2)nc2c(-c3cnn(C)c3)cnn2c1N (stereo not drawn)

IC50 [1]: 170 nM
SMILES: Cn1cc(-c2cnn3c(N)c(C4CC4)c(C4CCCNC4)nc23)cn1 (stereo not drawn)

IC50 [1]: 48 nM | IC50 [2]: 26 nM
SMILES: Cn1cc(-c2cnn3c(N)c(CCO)c(C4CCCNC4)nc23)cn1 (stereo not drawn)

IC50 [1]: 1700 nM | IC50 [2]: 100 nM
SMILES: Cn1cc(-c2cnn3c(N)c(C#N)c(C4CCCNC4)nc23)cn1 (stereo not drawn)

IC50 [1]: 28700 nM | IC50 [2]: 2900 nM
SMILES: Cn1cc(-c2cnn3c(N)c(Br)c(C4CCCCN4)nc23)cn1 (stereo not drawn)

IC50 [1]: 490 nM | IC50 [2]: 35 nM
SMILES: Cn1cc(-c2cnn3c(N)c(Br)c(C4CCNCC4)nc23)cn1

IC50 [1]: 1200 nM | IC50 [2]: 130 nM
SMILES: Cn1cc(-c2cnn3c(N)c(Br)c(C4CNCCO4)nc23)cn1 (stereo not drawn)

IC50 [1]: 150 nM
SMILES: Cn1cc(-c2cnn3c(N)c(Br)c(C4CNCCS4)nc23)cn1 (stereo not drawn)

IC50 [1]: 510 nM | IC50 [2]: 31 nM
SMILES: Cn1cc(-c2cnn3c(N)c(Br)c(C4CCNC4)nc23)cn1 (stereo not drawn)

IC50 [2]: 34 nM
SMILES: Cn1cc(-c2cnn3c(N)c(Br)c(CCN)nc23)cn1

IC50 [1]: 2800 nM | IC50 [2]: 87 nM
SMILES: Cn1cc(-c2cnn3c(N)c(Br)c(CC4CCNCC4)nc23)cn1

IC50 [2]: 7 nM
SMILES: Cn1cc(-c2cnn3c(N)c(Br)c(CC4CCNC4)nc23)cn1 (stereo not drawn)

IC50 [2]: 7 nM
SMILES: Cn1cc(-c2cnn3c(N)c(Br)c(CC4CCCNC4)nc23)cn1 (stereo not drawn)

IC50 [1]: 440 nM | IC50 [2]: 5 nM
SMILES: Cn1cc(-c2cnn3c(N)c(Br)c(C[C@H]4CCC[C@@H](N)C4)nc23)cn1 (relative stereo)
